From US9833448B2, “Piperidinone carboxamide azaindane CGRP receptor antagonists” (Merck Sharp & Dohme Corp., priority 2010, dated 2017)
Counter-ions that a name gives are not always drawn. Like-named read-outs stand apart in the source and are kept apart here. Ends that are not written are not given here.

Key:
[1] = molecular target: recombinant human CL receptor/RAMP1 (Homo sapiens (Human), UniProt O60894+Q16602); assay: Recombinant receptor binding assay (125I-hCGRP)
Description: Human CL receptor (Genbank accession number L76380) was subcloned into the expression vector pIREShyg2 (BD Biosciences Clontech) as a 5′NheI and 3′ PmeI fragment. Human RAMP1 (Genbank accession number AJ001014) was subcloned into the expression vector pIRESpuro2 (BD Biosciences Clontech) as a 5′NheI and 3′NotI fragment. HEK 293 cells (human embryonic kidney cells; ATCC #CRL-1573) were cultured in DMEM with 4.5 g/L glucose, 1 mM sodium pyruvate and 2 mM glutamine supplemented with 10% fetal bovine serum (FBS), 100 units/mL penicillin and 100 µg/mL streptomycin, and maintained at 37° C. and 95% humidity. Cells were subcultured by treatment with 0.25% trypsin with 0.1% EDTA in HBSS. Stable cell line generation was accomplished by co-transfecting 10 μg of DNA with 30 μg Lipofectamine 2000 (Invitrogen) in 75 cm^2 flasks. CL receptor and RAMP1 expression constructs were co-transfected in equal amounts. Twenty-four hours after transfection the cells were diluted and selective medium (growth medium+300 μg/mL hygromycin and 1 μg/mL puromycin) was added the following day. A clonal cell line was generated by single cell deposition utilizing a FACS Vantage SE (Becton Dickinson). Growth medium was adjusted to 150 μg/mL hygromycin and 0.5 μg/mL puromycin for cell propagation.
Recombinant Receptor Binding Assay:
The cell suspension was disrupted with a laboratory homogenizer and centrifuged at 48,000 g to isolate membranes. The pellets were resuspended in harvest buffer plus 250 mM sucrose and stored at −70° C. For binding assays, 20 μg of membranes were incubated in 1 mL binding buffer (10 mM HEPES, pH 7.4, 5 mM MgCl2, and 0.2% BSA) for 3 h at room temperature containing 10 pM ^125I-hCGRP (GE Healthcare) and antagonist. The assay was terminated by filtration through 96-well GFB glass fiber filter plates (PerkinElmer) that had been blocked with 0.05% polyethyleneimine. The filters were washed 3 times with ice-cold assay buffer (10 mM HEPES, pH 7.4, and 5 mM MgCl2). Scintillation fluid was added and the plates were counted on a Topcount (Packard). Non-specific binding was determined and the data analysis was carried out with the apparent dissociation constant (Ki) determined by using a non-linear least squares fitting the bound CPM data to the equation below:
[formula] Where Y is observed CPM bound, Ymax is total bound counts, Ymin is non specific bound counts, (Ymax−Ymin) is specific bound counts, % Imax is the maximum percent inhibition, % I min is the minimum percent inhibition, radiolabel is the probe, and the Kd is the apparent dissociation constant for the radioligand for the receptor as determined by hot saturation experiments.

[2] = test system: middle meningeal artery; conditions: rats, prior administration (Williamson et al. 1997); cited from earlier work
[3] = test system: facial blood flow; conditions: rat (Escott et al. 1995); cited from earlier work
[4] = test system: acute attacks of migraine; conditions: cited from earlier work
[5] = test system: headache induced by CGRP infusion; conditions: control group (Petersen et al. 2005); cited from earlier work
[6] = test system: facial blood flow; conditions: marmoset (Doods et al. 2000); cited from earlier work
[7] = analogues disclosed in U.S. Pat. No. 7,390,798 and US 2010/0179166, read-out: Ki (CGRP binding data)
[8] = exemplary compounds of the invention, 10 pM 125I-hCGRP, membranes of HEK 293 cells, read-out: Ki

Chain of recombinant human CL receptor/RAMP1 (Q16602 23-461): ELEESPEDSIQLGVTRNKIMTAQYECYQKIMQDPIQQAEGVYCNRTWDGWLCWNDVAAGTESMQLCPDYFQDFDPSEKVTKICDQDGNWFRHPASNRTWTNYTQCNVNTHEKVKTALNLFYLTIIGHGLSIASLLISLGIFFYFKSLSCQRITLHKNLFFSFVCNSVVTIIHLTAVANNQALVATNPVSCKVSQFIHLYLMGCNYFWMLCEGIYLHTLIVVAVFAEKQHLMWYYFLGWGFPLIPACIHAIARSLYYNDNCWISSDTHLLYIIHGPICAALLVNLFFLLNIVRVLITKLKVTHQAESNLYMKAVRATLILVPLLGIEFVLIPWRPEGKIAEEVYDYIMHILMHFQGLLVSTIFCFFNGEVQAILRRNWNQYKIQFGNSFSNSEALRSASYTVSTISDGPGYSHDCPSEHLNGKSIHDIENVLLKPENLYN
Chain of recombinant human CL receptor/RAMP1 (O60894 27-148): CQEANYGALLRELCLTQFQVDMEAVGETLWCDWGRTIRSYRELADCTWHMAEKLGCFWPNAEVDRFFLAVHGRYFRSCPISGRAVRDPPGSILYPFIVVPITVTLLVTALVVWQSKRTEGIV

CC(C)(O)CN1C[C@H](c2cccc(F)c2F)CC[C@@H](NC(=O)c2ccc3c(c2)CC2(C3)C(=O)Nc3ncccc32)C1=O (stereo partly drawn) [Example 10 from U.S. Pat. No. 7,390,798]
Ki [1, 7]: 1.7 nM

O=C(N[C@H]1C[C@@H](c2cccc(F)c2F)CN(CC2CCC2)C1=O)c1cnc2c(c1)C[C@@]1(C2)C(=O)Nc2ncccc21 [Example 17]
Ki [1, 8]: 0.055 nM

CN1C[C@H](c2cccc(F)c2F)CC[C@@H](NC(=O)c2ccc3c(c2)CC2(C3)C(=O)Nc3ncccc32)C1=O (stereo partly drawn) [Example 8 from U.S. Pat. No. 7,390,798]
Ki [1, 7]: 7.4 nM

CC(C)(O)c1cnc2n1C[C@H](c1cccc(F)c1F)CC[C@H]2NC(=O)c1cc2c(cn1)CC1(C2)C(=O)Nc2ncccc21 (stereo partly drawn) [Example 8 from US 2010/0179166]
Ki [1, 7]: 4.3 nM

O=C(N[C@H]1C[C@@H](c2c(F)cccc2Cl)CN(CC(F)(F)F)C1=O)c1cnc2c(c1)C[C@@]1(C2)C(=O)Nc2ncccc21 [Example 11]
Ki [1, 8]: 0.25 nM

CGRP (8-37) (VTHRLAGLLSRSGGVVKNNFVPTNVGSKAF; ends and bridges not checked; UniProt P06881 90-119, looked up, fragment) [a peptide CGRP receptor antagonist]
effect on increase of middle meningeal artery diameter [2]: blocked
effect on increased facial blood flow [3]: inhibited

C[C@@H]1[C@H](c2ccccc2)C[C@H](NC(=O)c2cnc3c(c2)C[C@@]2(C3)C(=O)Nc3ncc(C#N)cc32)C(=O)N1CC(F)(F)F [Example 30]
Ki [1, 8]: 0.14 nM

O=C(N[C@@H]1CC[C@@H](c2cccc(F)c2F)CN(CC(F)(F)F)C1=O)N1CCC(n2c(=O)[nH]c3ncccc32)CC1 [telcagepant]
antimigraine effectiveness ([4]; phase III clinical trials, orally bioavailable): shown antimigraine effectiveness

C[C@@H]1[C@H](c2ccccc2)C[C@H](NC(=O)c2cnc3c(c2)C[C@@]2(C3)C(=O)Nc3ncccc32)C(=O)N1CC(F)(F)F [Example 1, (6S)—N-[(3S,5S,6R)-6-Methyl-2-oxo-5-phenyl-1-(2,2,2-trifluoroethyl)piperidin-3-yl]-2′-oxo-1′,2′,5,7-tetrahydrospiro[cyclopenta[b]pyridine-6,3′-pyrrolo[2,3-b]pyridine]-3-carboxamide]
Ki [1, 8]: 0.067 nM

NCCCC[C@H](NC(=O)[C@@H](Cc1cc(Br)c(O)c(Br)c1)NC(=O)N1CCC(N2Cc3ccccc3NC2=O)CC1)C(=O)N1CCN(c2ccncc2)CC1 [BIBN4096BS]
prevention of headache induced by CGRP infusion [5]: able to prevent headache induced by CGRP infusion
effectiveness in treating acute attacks of migraine ([4]; clinical trials (Olesen et al. 2004)): effective in treating acute attacks of migraine
effect on increase in facial blood flow [6]: could be blocked

C[C@@H]1[C@H](c2ccccc2)C[C@H](NC(=O)c2cnc3c(c2)C[C@@]2(C3)C(=O)Nc3ncncc32)C(=O)N1CC(F)(F)F [Example 31]
Ki [1, 8]: 0.17 nM

Cc1ccccc1[C@@H]1C[C@H](NC(=O)c2cnc3c(c2)C[C@@]2(C3)C(=O)Nc3ncccc32)C(=O)N(CC(F)(F)F)[C@@H]1C [Example 3, (6S)—N-[(3 S,5S,6R)-6-Methyl-5-(2-methylphenyl)-2-oxo-1-(2,2,2-trifluoroethyl)piperidin-3-yl]-2′-oxo-1′,2′,5,7-tetrahydrospiro[cyclopenta[b]pyridine-6,3′-pyrrolo[2,3-b]pyridine]-3-carboxamide]
Ki [1, 8]: 0.067 nM

C[C@@H]1[C@H](c2cc(F)cc(F)c2F)C[C@H](NC(=O)c2cnc3c(c2)C[C@@]2(C3)C(=O)Nc3ncccc32)C(=O)N1CC(F)(F)F [Example 5, (6S)—N-[(3S,5S,6R)-6-Methyl-2-oxo-1-(2,2,2-trifluoroethyl)-5-(2,3,5-trifluorophenyl)piperidin-3-yl]-2′-oxo-1′,2′,5,7-tetrahydrospiro[cyclopenta[b]pyridine-6,3′-pyrrolo[2,3-b]pyridine]-3-carboxamide dihydrochloride]
Ki [1, 8]: 0.017 nM

O=C(N[C@@H]1CC[C@@H](c2cccc(F)c2F)CN(CC(F)(F)F)C1=O)c1ccc2c(c1)CC1(C2)C(=O)Nc2ncccc21 (stereo partly drawn) [Example 9 from U.S. Pat. No. 7,390,798]
Ki [1, 7]: 1.9 nM

O=C(N[C@H]1C[C@@H](c2ccccc2F)CN(CC(F)(F)F)C1=O)c1cnc2c(c1)C[C@@]1(C2)C(=O)Nc2ncccc21 [Example 6]
Ki [1, 8]: 0.21 nM
